# In US20130053385A1, “METHOD OF COMBATING AND CONTROLLING PESTS” (SYNGENTA LIMITED, priority 2009, published 2013):
# System: Tetranychus urticae (Two-Spotted Spider Mite)
# Assay: Activity against Tetranychus urticae, mixed population, feeding/residual contact activity, preventive (bean leaf discs, Example B4)
# Format: in vivo
# Details: foliar, 192 h, 400 ppm, sprayed bean leaf discs, 8 days, mixed-age mites, read-out: activity (egg, larval and adult mortality)
# Text: Activity Against Tetranychus urticae (Two-Spotted Spider Mite)
# (§1) (mixed population, feeding/residual contact activity, preventive)
# Bean leaf discs on agar in 24-well microtiter plates are sprayed with test solutions. After drying, the leaf discs are infested with mite populations of mixed ages. 8 days later, discs are checked for egg mortality, larval mortality, and adult mortality.
row,Compound,mortality at 400 ppm
1,Cc1cc(C)c(C2=C(OS(=O)(=O)C3CC3)CC(CC3CCOC3)C2=O)c(C)c1 (stereo not drawn) [Compound P28],> 80%
2,Cc1cc(C)c(C2=C(OC(=O)C(C)(C)C)CC(CCC3CCOCC3)C2=O)c(C)c1 (stereo not drawn) [Compound P34],> 80%
3,Cc1cc(C)c(C2=C(OC(=O)C(C)(C)C)CC(CC3COCCO3)C2=O)c(C)c1 (stereo not drawn) [Compound P49],> 80%
4,CON1CCC(CC2CC(OC(=O)C(C)(C)C)=C(c3c(C)cc(C)cc3C)C2=O)CC1 (stereo not drawn) [Compound P51],> 80%
5,Cc1cc(C)c(C2=C(OC(=O)C3CC3)CC(CC3CCN(C(=O)C4CC4)C3)C2=O)c(C)c1 (stereo not drawn) [Compound P57],> 80%
6,Cc1cc(C)c(C2=C(OC(=O)C(C)C)CC(CC3CCN(C(=O)C(C)C)C3)C2=O)c(C)c1 (stereo not drawn) [Compound P58],> 80%
7,Cc1cc(C)c(C2=C(OC(=O)C(C)(C)C)CC(CC3CCN(C(=O)C(C)(C)C)C3)C2=O)c(C)c1 (stereo not drawn) [Compound P59],> 80%
8,Cc1cc(C)c(C2=C(OC(=O)c3ccco3)CC(CC3CCN(C(=O)c4ccco4)C3)C2=O)c(C)c1 (stereo not drawn) [Compound P62],> 80%
9,Cc1cc(C)c(C2=C(OC(=O)c3c(C)noc3C)CC(CC3CCN(C(=O)c4c(C)noc4C)C3)C2=O)c(C)c1 (stereo not drawn) [Compound P63],> 80%
10,CCC(=O)OC1=C(c2c(C)cc(C)cc2C)C(=O)C(CC2CCN(C(=O)CC)CC2)C1 (stereo not drawn) [Compound P65],> 80%
11,Cc1cc(C)c(C2C(=O)CC(C(O)C3CCSCC3)C2=O)c(C)c1 (stereo not drawn) [Compound T6],> 80%
12,Cc1cc(C)c(C2C(=O)CC(CCC3CCOCC3)C2=O)c(C)c1 (stereo not drawn) [Compound T21],> 80%
13,Cc1cc(C)c(C2C(=O)CC(C)(CC3CCOC3)C2=O)c(C)c1 (stereo not drawn) [Compound T30],> 80%
14,Cc1cc(C)c(C2C(=O)C/C(=C\C3CCN(C(=O)c4ccccc4)C3)C2=O)c(C)c1 (stereo not drawn) [Compound T34],> 80%
15,CC(=O)N1CCC(CC2CC(=O)C(c3c(C)cc(C)cc3C)C2=O)C1 (stereo not drawn) [Compound T35],> 80%
16,Cc1cc(C)c(C2C(=O)C/C(=C\C3CCOC(C)(C)C3)C2=O)c(C)c1 (stereo not drawn) [Compound T37],> 80%
17,Cc1cc(C)c(C2C(=O)CC(CC3COCCO3)C2=O)c(C)c1 (stereo not drawn) [Compound T40],> 80%
18,Cc1cc(C)c(C2C(=O)CC(CC3CCN(C(=O)c4ccccc4)C3)C2=O)c(C)c1 (stereo not drawn) [Compound T41],> 80%
19,COC(=O)N1CCC(CC2CC(=O)C(c3c(C)cc(C)cc3C)C2=O)C1 (stereo not drawn) [Compound T43],> 80%
20,CCC1CCC(CC2CC(=O)C(c3c(C)cc(C)cc3C)C2=O)O1 (stereo not drawn) [Compound T44],> 80%
21,Cc1cc(Br)cc(C)c1C1C(=O)C/C(=C\C2CCOCC2)C1=O (stereo not drawn) [Compound T45],> 80%
22,CC(=O)N1CCCCC1CC1CC(=O)C(c2c(C)cc(C)cc2C)C1=O (stereo not drawn) [Compound T48],> 80%
23,CCc1cc(C)cc(C)c1C1C(=O)CC(CC2CCOCC2)C1=O (stereo not drawn) [Compound T50],> 80%
24,Cc1cc(C)c(C2C(=O)CC(CC3CCN(C(=O)OC(C)(C)C)CC3)C2=O)c(C)c1 (stereo not drawn) [Compound T55],> 80%
25,CCc1cc(C)cc(C)c1C1C(=O)CC(CCC2CCOCC2)C1=O (stereo not drawn) [Compound T58],> 80%
26,Cc1cc(C)c(C2C(=O)CC(CC3CCN(c4ccc(Cl)cc4)CC3)C2=O)c(C)c1 (stereo not drawn) [Compound T60],> 80%
27,Cc1cc(-c2ccccc2)cc(C)c1C1C(=O)C/C(=C\C2CCOCC2)C1=O (stereo not drawn) [Compound T66],> 80%

row,Compound,mortality at 400 ppm
1,Cc1cc(-c2ccccc2)cc(C)c1C1C(=O)CC(CC2CCOCC2)C1=O (stereo not drawn) [Compound T67],> 80%
2,Cc1cc(C)c(C2C(=O)CC(CC3CCN(C(=O)c4ccccc4C)CC3)C2=O)c(C)c1 (stereo not drawn) [Compound T72],> 80%
3,CCS(=O)(=O)N1CCC(CC2CC(=O)C(c3c(C)cc(C)cc3C)C2=O)CC1 (stereo not drawn) [Compound T95],> 80%
4,COC(=O)N1CCC(CC2CC(=O)C(c3c(C)cc(C)cc3C)C2=O)CC1 (stereo not drawn) [Compound T98],> 80%
5,Cc1cc(C)c(C2C(=O)CC(CC3CCN(S(=O)(=O)C(F)(F)F)CC3)C2=O)c(C)c1 (stereo not drawn) [Compound T112],> 80%
6,Cc1cc(C)c(C2C(=O)CC(CC3C[C@@H]4O[C@H]3[C@@H]3C(=O)N(C)C(=O)[C@@H]34)C2=O)c(C)c1 (stereo partly drawn) [Compound T128],> 80%
7,Cc1cc(C)c(C2C(=O)CC(CC3OCCO3)C2=O)c(C)c1 (stereo not drawn) [Compound T130],> 80%
8,Cc1cc(C)c(C2C(=O)CC(CC3CCN(C(=O)C(F)(F)C(F)F)C3)C2=O)c(C)c1 (stereo not drawn) [Compound T131],> 80%
9,Cc1cc(-c2ccc(Cl)cc2F)cc(C)c1C1C(=O)C/C(=C\C2CCOCC2)C1=O (stereo not drawn) [Compound T132],> 80%
10,Cc1cc(-c2ccc(OC(F)(F)F)cc2)cc(C)c1C1C(=O)C/C(=C\C2CCOCC2)C1=O (stereo not drawn) [Compound T134],> 80%
11,Cc1cc(-c2ccc(Cl)cc2F)cc(C)c1C1C(=O)C/C(=C\C2CCOC2)C1=O (stereo not drawn) [Compound T135],> 80%
12,Cc1cc(-c2ccc(C(F)(F)F)cc2)cc(C)c1C1C(=O)CC(CC2CCOCC2)C1=O (stereo not drawn) [Compound T136],> 80%
13,Cc1cc(-c2ccc(OC(F)(F)F)cc2)cc(C)c1C1C(=O)CC(CC2CCOCC2)C1=O (stereo not drawn) [Compound T137],> 80%
14,Cc1cc(Br)cc(C)c1C1C(=O)CC(CC2CCOCC2)C1=O (stereo not drawn) [Compound T138],> 80%
15,Cc1cc(-c2ccccc2F)cc(C)c1C1C(=O)CC(CC2CCOCC2)C1=O (stereo not drawn) [Compound T139],> 80%
16,Cc1cc(-c2ccccc2F)cc(C)c1C1C(=O)CC(CC2CCOC2)C1=O (stereo not drawn) [Compound T140],> 80%
17,Cc1cc(C)c(C2C(=O)CC(CC3CCN(C(=O)C(C)C)C3)C2=O)c(C)c1 (stereo not drawn) [Compound T142],> 80%
18,Cc1cc(-c2ccc(F)cc2)cc(C)c1C1C(=O)CC(CC2CCOC2)C1=O (stereo not drawn) [Compound T158],> 80%
19,Cc1cc(C)c(C2C(=O)CC(CC3CCN(C(=O)C(F)(F)C(F)F)CC3)C2=O)c(C)c1 (stereo not drawn) [Compound T161],> 80%
20,Cc1cc(C)c(C2C(=O)CC(CC3CCN(C(=O)C(F)(F)F)C3)C2=O)c(C)c1 (stereo not drawn) [Compound T162],> 80%
21,Cc1cc(C)c(C2C(=O)CC(CC3CCN(C(=O)C(F)(F)F)CC3)C2=O)c(C)c1 (stereo not drawn) [Compound T163],> 80%
22,Cc1ccc(C)c(C2C(=O)CC(CC3CCOCC3)C2=O)c1 (stereo not drawn) [Compound T164],> 80%
23,Cc1cc(F)cc(C)c1C1C(=O)CC(CC2CCOCC2)C1=O (stereo not drawn) [Compound T170],> 80%
24,Cc1cc(F)cc(C)c1C1C(=O)CC(CC2CCOC2)C1=O (stereo not drawn) [Compound T171],> 80%
25,Cc1cc(C2CC2)cc(C)c1C1C(=O)CC(CC2CCOCC2)C1=O (stereo not drawn) [Compound T173],> 80%
26,Cc1ccc(C)c(C2C(=O)CC(CC3CCOC3)C2=O)c1 (stereo not drawn) [Compound T175],> 80%

# Same assay, conditions: foliar, 192 h, read-out: activity (egg, larval and adult mortality)
row,Compound,mortality at 400 ppm
1,Cc1cc(C)c(C2C(=O)CC(CC3CCN(C(=O)Oc4ccccc4)CC3)C2=O)c(C)c1 (stereo not drawn) [Compound T68],> 80%

# System: Myzus persicae (Green Peach Aphid)
# Assay: Activity against Myzus persicae, mixed population, feeding/residual contact activity, preventive (sunflower leaf discs, Example B1)
# Format: in vivo
# Details: foliar, 144 h, 400 ppm, sprayed sunflower leaf discs, 6 days incubation, mixed-age aphids, read-out: activity (mortality)
# Protocol: Activity Against Myzus persicae (Green Peach Aphid)
# as §1
# Sunflower leaf discs are placed on agar in a 24-well microtiter plate and sprayed with test solutions. After drying, the leaf discs are infested with an aphid population of mixed ages. After an incubation period of 6 days, samples are checked for mortality and special effects (e.g. phytotoxicity).
row,Compound,mortality at 400 ppm
1,Cc1cc(C)c(C2=C(OC(=O)C3CC3)CC(CC3CCOC3)C2=O)c(C)c1 (stereo not drawn) [Compound P14],> 80%
2,CCCCCCC(=O)OC1=C(c2c(C)cc(C)cc2C)C(=O)C(CC2CCOC2)C1 (stereo not drawn) [Compound P16],> 80%
3,Cc1cc(C)c(C2=C(OC(=O)C3CC3)CC(CC3CCN(C(=O)C4CC4)C3)C2=O)c(C)c1 (stereo not drawn) [Compound P57],> 80%
4,Cc1cc(Br)cc(C)c1C1=C(OC(=O)C(C)(C)C)CC(CC2CCOCC2)C1=O (stereo not drawn) [Compound P66],> 80%
5,CC(=O)N1CCC(/C=C2\CC(=O)C(c3c(C)cc(C)cc3C)C2=O)CC1 (stereo not drawn) [Compound T15],> 80%
6,CC(=O)N1CCC(CC2CC(=O)C(c3c(C)cc(C)cc3C)C2=O)CC1 (stereo not drawn) [Compound T24],> 80%
7,Cc1cc(C)c(C2C(=O)C(C)C(CC3CCOC3)C2=O)c(C)c1 (stereo not drawn) [Compound T29],> 80%
8,Cc1cc(C)c(C2C(=O)C/C(=C\C3CCOC(C)(C)C3)C2=O)c(C)c1 (stereo not drawn) [Compound T37],> 80%
9,Cc1cc(Br)cc(C)c1C1C(=O)C/C(=C\C2CCOCC2)C1=O (stereo not drawn) [Compound T45],> 80%
10,CCc1cc(C)cc(C)c1C1C(=O)C/C(=C\C2CCOC2)C1=O (stereo not drawn) [Compound T59],> 80%
11,CCS(=O)(=O)N1CCC(CC2CC(=O)C(c3c(C)cc(C)cc3C)C2=O)CC1 (stereo not drawn) [Compound T95],> 80%
12,Cc1cc(-c2ccc(Cl)cc2F)cc(C)c1C1C(=O)C/C(=C\C2CCOCC2)C1=O (stereo not drawn) [Compound T132],> 80%
13,Cc1cc(Br)cc(C)c1C1C(=O)CC(CC2CCOCC2)C1=O (stereo not drawn) [Compound T138],> 80%
14,Cc1cc(C)c(C2C(=O)CC(Cc3ccccc3)(CC3CCOC3)C2=O)c(C)c1 (stereo not drawn) [Compound T150],> 80%
15,Cc1cc(Cl)cc(C)c1C1C(=O)CC(CC2CCOCC2)C1=O (stereo not drawn) [Compound T169],> 80%
16,Cc1cc(F)cc(C)c1C1C(=O)CC(CC2CCOC2)C1=O (stereo not drawn) [Compound T171],> 80%

# Same assay, conditions: foliar, 144 h, read-out: activity (mortality)
row,Compound,mortality at 400 ppm
1,Cc1cc(C)c(C2C(=O)CC(CC3CCN(C(=O)Oc4ccccc4)CC3)C2=O)c(C)c1 (stereo not drawn) [Compound T68],> 80%
2,COC(=O)N1CCC(CC2CC(=O)C(c3c(C)cc(C)cc3C)C2=O)CC1 (stereo not drawn) [Compound T98],> 80%
